Assay results: ChEMBL document CHEMBL1136223, “Reversed hydroxamate-bearing thermolysin inhibitors mimic a high-energy intermediate along the enzyme-catalyzed proteolytic reaction pathway” (Bioorg Med Chem Lett, 2003)

Tests used:
[1] = Ratio of Km to that of Kcat against thermolysin
[2] = target: T1, Thermolysin (Bacillus thermoproteolyticus, UniProt P00800); assay: Inhibitory activity against thermolysin
T1 sequence (P00800 whole entry): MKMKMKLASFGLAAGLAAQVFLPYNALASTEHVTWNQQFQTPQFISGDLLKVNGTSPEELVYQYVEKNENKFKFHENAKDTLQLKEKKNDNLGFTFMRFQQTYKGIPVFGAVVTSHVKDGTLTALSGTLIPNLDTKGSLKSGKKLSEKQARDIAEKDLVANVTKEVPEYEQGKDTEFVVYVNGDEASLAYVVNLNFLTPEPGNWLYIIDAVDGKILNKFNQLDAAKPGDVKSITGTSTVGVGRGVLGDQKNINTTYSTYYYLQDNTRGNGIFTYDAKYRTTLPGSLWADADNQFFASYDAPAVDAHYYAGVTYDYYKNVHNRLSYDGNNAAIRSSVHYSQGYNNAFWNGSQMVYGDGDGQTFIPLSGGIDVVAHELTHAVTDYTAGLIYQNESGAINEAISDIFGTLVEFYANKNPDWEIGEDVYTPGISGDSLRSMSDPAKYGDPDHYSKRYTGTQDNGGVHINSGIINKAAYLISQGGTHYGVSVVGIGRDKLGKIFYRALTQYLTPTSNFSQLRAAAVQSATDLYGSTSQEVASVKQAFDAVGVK

[3] = target: T1, Thermolysin; assay: Inhibitory activity against thermolysin using N-[3-(2-furyl)acryloyl]-Gly-l-leucineamide (FA-Gly-l-Leu-NH2) as substrate

Q: For CC(C)C[C@H](CN(O)C=O)C(=O)NC(=O)[C@@H](N)Cc1ccccc1, which Km/Kcat [1] is on record?
A: 20 µM/s

Q: What about the Ki [2] of the same compound?
A: 2.4 µM

Q: What about the Ki [3] of the same compound?
A: 1.84 µM

Q: For CC(C)C[C@H](CN(O)C=O)C(=O)NC(=O)CN, which Km/Kcat [1] is on record?
A: 165 µM/s

Q: And the Ki [2]?
A: 10.9 µM

Q: What about the Ki [3] of the same compound?
A: 14.7 µM

Q: With CC(C)C[C@H](CN(O)C=O)C(=O)NC(=O)[C@@H](C)N as the compound, how does the Km/Kcat [1] read?
A: 3200 µM/s

Q: And the Ki [2]?
A: 16.6 µM

Q: What about the Ki [3] of the same compound?
A: 383 µM

Q: With CC(C)C[C@H](CN(O)C=O)C(=O)NC(=O)[C@H](C)N as the compound, how does the Km/Kcat [1] read?
A: 13.6 µM/s

Q: What about the Ki [2] of the same compound?
A: 10.6 µM

Q: And the Ki [3]?
A: 2.49 µM

Q: With CC(C)C[C@H](CN(O)C=O)C(N)=O as the compound, how does the Km/Kcat [1] read?
A: 196 µM/s

Q: What about the Ki [2] of the same compound?
A: 20.6 µM

Q: What about the Ki [3] of the same compound?
A: 52.8 µM
